From US20250170117A1, “MODULATORS OF ACKR3 AND USES THEREOF” (InterAx Biotech AG, priority 2022, published 2025)
Structures can show the parent of a compound that is named as a salt.

Tests used:
[1] = Single-dose pharmacokinetics study in mice; type: in vivo; settings: male CD1 mice, IP, 30 mg/kg; for pharmacokinetic profiles (half-lives) compared with reference compound: versus ACT-1004-1239; for half-life: mouse, blood, LC-MS/MS, read-out: PK half-life
Procedure: Male CD1 mice were administered IP with compound dissolved in vehicle (10% HP-β-CD in 100 mM Citrate buffer, pH 7) at a dose of 30 mg/kg and mice were sacrificed at different time points (n=3 per time point) following compound administration. Blood samples were harvested at different time points and compound concentration was determined by LC-MS/MS.

NanoLuc-hACKR3 = molecular target: T1, NanoLuc-hACKR3 (Homo sapiens, UniProt P25106); assay: NanoBRET binding study (displacement of fluorescently labelled CXCL12); settings: displacement of 0.3 nM CXCL12-AF647; membranes of HEK293T cells expressing NanoLuc-ACKR3; 1 hour incubation; read-out: Affinity
T1 construct: expressed in transfected cells; host or cells: HEK293T (transient, PEI; membrane preparation)
Procedure: Membranes of HEK293T cells that transiently express the NanoLuc-hACKR3 were produced. 2 million HEK293T cells were seeded per […] dish and were transfected the next day using a DNA/PEI-mix containing 0.25 μg plasmid DNA encoding for the ACKR3, 4.75 μg pcDEF3 plasmid DNA and 30 μg linear PEI. Two days after transfection, cells were collected in PBS and pelleted by centrifugation. Cell pellets were resuspended in ice-cold membrane buffer (15 mM Tris, 0.3 mM EDTA, 2 mM MgCl2, pH 7.4 at 4° C.) and were dounce-homogenized on ice by plunging the pestle […] with 1500 rpm. Cell homogenates were subsequently subjected to two freeze-thaw cycles using liquid nitrogen. Next, the cell homogenates were centrifuged at 40,000 g and pellets were resuspended in Tris-sucrose buffer (20 mM Tris, 250 mM Sucrose, pH 7.4 at 4° C.). Finally, the membrane samples were homogenized using a 23-gauge needle, snap-frozen with liquid nitrogen and stored until further experimentation at −80° C.
Binding reactions were measured in triplicate on white low-volume 384-well plates and started by combining 0.3 nM fluorescently labelled CXCL12 (CXCL12 labelled with a AF647® dye in a molar ratio of dye:peptide of 1:1, purchased from ALMAC, h-SDF-1α (AF647®), cat. No. CAF-11, Sequence:
[…](Ale xa647®)ALN), increasing concentrations of test compound (10^−5 M-10^−11 M) with 35 ng membranes (protein content) per well of HEK293T cells expressing the NanoLuc-ACKR3. All dilutions were prepared in HBSS supplemented with 0.2% BSA. After assembling the binding reaction, the plate was flash-centrifuged at 500 g. Binding reactions were then incubated for 1 hour after which NanoGlo substrate was added (310 times diluted from stock concentration) to a final volume of 13.5 μL. The reaction plate was again pulse-centrifuged to 500 g and the total light intensity was measured for 460 nm wavelength with 80 nm bandwidth and separately for wavelengths ≥610 nm using the PHERAstar-FSX (BMG Labtech, Ortenberg, Germany) with a dual emission filter. The ratio of light intensities (>610 nm over 460 nm) is a measure for the relative binding of CXCL12-A647 to the NanoLuc-ACKR3. The pharmacological data are presented in Appendix 1.

CXCL12 = assay: Target engagement study in mice (blood CXCL12 by ELISA); type: in vivo; settings: male CD1 mice, IP, 30 mg/kg; for target engagement compared with reference compound: 16 h, versus ACT-1004-1239
Procedure: Male CD1 mice were administered IP with compound dissolved in vehicle (10% HP-β-CD in 100 mM Citrate buffer, pH 7) at a dose of 30 mg/kg and mice were sacrificed 16 h (n=3 per time point) following compound administration. Blood samples were harvested and CXCL12 concentration was determined by CXCL12 ELISA kit.

[2] = In vitro microsomal stability assay (metabolic stability); type: in vitro ADME, mouse; settings: for half-life at 10 μM: mouse liver microsomes (male CD-1), NADPH regenerative system, 10 μM compound, 15, 30 or 60 minutes; for metabolic stability compared with reference compound: mouse liver microsomes, versus ACT-1004-1239
Procedure: Mouse liver microsomes (from S9 liver fraction from male CD-1 mice) are co-incubated with an NADPH regenerative system (1.3 mM NADP+, 3.3. mM glucose-6-phoase, 3.3 mM MgCl2 and 0.4 units/ml glucose-6-phosphate-dehydrogenase) and 10 μM compound for 15, 30 or 60 minutes. Reaction was terminated by centrifugation at max speed and samples were analyzed by LC-MS.

T1 sequence (P25106 whole entry): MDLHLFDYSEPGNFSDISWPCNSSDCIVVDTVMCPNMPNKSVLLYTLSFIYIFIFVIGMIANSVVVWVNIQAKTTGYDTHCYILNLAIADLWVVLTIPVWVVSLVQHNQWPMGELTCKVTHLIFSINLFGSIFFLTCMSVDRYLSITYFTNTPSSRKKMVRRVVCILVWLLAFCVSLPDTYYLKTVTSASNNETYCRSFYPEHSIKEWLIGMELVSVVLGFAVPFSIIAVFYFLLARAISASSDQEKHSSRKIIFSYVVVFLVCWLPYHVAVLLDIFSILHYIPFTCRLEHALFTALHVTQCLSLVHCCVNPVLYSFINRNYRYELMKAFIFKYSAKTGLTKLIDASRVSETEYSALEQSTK

pharmacokinetic profiles (half-lives) compared with reference compound [1] | half-life [1] [h] | Ki (NanoLuc-hACKR3) [nM] | half-life at 10 μM [2] [h] | SMILES | target engagement compared with reference compound (CXCL12) | metabolic stability compared with reference compound [2] | Target engagement (CXCL12 fold-increase) (CXCL12; blood 16 h after administration, CXCL12 ELISA)
better than the reference compound | 2 to 4 | ≤ 100 | > 10 | O=C(NCC1CCN(C2CCCCC2)CC1)c1cc(-c2ccc(F)cc2F)on1 [Molecule 1, N-[(1-cyclohexylpiperidin-4-yl)methyl]-5-(2,4-difluorophenyl)-1,2-oxazole-3-carboxamide HCl] | comparable or better than the reference compound | comparable or better than the reference compound | –
better than the reference compound | > 4 | ≤ 100 | 2 to 4 | O=C(NCC1CCN(Cc2ccc(N3CCCC3)cc2)CC1)c1cc(-c2ccc(F)cc2F)on1 [Molecule 44, 5-(2,4-difluorophenyl)-N-((1-(4-(pyrrolidin-1-yl)benzyl)piperidin-4-yl)methyl)isoxazole-3-carboxamide] | comparable or better than the reference compound | comparable or better than the reference compound | ++ (>3 = ++)
